Test results taken from US20250368666A1, “INDAZOLE COMPOUNDS” (TYRA BIOSCIENCES, INC., priority 2022, published 2025).

Legend:
[1] = molecular target: T1, FGFR1 (Homo sapiens, UniProt P11362); assay: Kinase binding assay (kinase-tagged T7 phage, affinity beads, qPCR), Kd; conditions: read-out: FGFR1 (Kd nM)
T1 construct: made in house; host or cells: E. coli (BL21-derived), T7 phage
In short: (§1)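 Competition binding; kinase-tagged T7 phage lysate vs immobilised biotinylated ligand on streptavidin beads, 0.9% DMSO final. 11-pt 3-fold dilutions, 3 DMSO controls. qPCR of eluted kinase; Kd by Hill fit, slope −1.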

[2] = molecular target: T2, FGFR2 (Homo sapiens, UniProt P21802); assay: as above; conditions: read-out: FGFR2 (Kd nM)
T2 construct: made in house; host or cells: E. coli (BL21-derived), T7 phage
T2 sequence (P21802 22-821): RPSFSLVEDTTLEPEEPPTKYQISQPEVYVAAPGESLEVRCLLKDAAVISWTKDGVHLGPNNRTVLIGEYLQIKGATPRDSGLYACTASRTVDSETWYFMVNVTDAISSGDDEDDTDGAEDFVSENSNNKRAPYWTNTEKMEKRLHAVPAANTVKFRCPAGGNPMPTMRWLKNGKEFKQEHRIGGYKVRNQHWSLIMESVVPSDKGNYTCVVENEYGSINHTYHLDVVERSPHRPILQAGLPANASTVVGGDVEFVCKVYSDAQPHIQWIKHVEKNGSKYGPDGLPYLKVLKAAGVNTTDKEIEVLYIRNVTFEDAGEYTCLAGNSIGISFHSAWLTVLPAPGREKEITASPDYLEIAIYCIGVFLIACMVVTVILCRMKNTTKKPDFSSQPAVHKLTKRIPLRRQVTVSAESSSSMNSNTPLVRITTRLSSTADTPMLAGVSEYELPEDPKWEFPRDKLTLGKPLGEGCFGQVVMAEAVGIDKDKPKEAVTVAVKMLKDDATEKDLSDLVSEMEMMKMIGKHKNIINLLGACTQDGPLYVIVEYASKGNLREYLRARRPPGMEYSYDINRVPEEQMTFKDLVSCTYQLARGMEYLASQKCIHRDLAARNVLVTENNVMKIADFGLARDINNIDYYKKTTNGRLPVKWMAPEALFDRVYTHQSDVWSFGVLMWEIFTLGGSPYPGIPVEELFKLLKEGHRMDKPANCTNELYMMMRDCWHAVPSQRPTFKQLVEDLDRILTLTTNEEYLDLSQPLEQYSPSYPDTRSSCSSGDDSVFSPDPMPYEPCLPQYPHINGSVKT
In short: as §1

[3] = molecular target: T3, FGFR3 (Homo sapiens, UniProt P22607); assay: as above; conditions: read-out: FGFR3 (Kd nM)
T3 construct: made in house; host or cells: E. coli (BL21-derived), T7 phage
T3 sequence (P22607 23-806): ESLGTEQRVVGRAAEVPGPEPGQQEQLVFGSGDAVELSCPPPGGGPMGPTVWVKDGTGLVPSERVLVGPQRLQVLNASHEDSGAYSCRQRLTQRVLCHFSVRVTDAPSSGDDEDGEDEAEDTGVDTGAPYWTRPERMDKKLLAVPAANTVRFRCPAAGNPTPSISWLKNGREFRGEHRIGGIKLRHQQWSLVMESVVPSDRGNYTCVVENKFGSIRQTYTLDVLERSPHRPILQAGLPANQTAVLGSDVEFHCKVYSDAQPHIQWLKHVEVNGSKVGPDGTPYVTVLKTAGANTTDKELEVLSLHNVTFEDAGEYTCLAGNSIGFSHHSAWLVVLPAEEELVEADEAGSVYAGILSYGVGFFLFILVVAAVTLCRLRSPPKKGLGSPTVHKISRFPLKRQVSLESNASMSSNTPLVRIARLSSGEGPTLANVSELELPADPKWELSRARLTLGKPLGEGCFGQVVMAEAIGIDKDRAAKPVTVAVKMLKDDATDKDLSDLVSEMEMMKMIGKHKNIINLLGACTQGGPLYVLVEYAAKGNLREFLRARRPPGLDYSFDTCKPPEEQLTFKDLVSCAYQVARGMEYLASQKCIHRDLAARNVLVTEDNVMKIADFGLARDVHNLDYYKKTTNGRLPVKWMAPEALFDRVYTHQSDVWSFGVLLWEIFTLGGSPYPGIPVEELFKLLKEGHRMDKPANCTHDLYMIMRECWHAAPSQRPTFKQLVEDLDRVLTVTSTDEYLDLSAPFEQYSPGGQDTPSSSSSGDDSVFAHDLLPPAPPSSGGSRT
In short: as §1

[4] = molecular target: T4, FGFR3 (V555M) (Homo sapiens, UniProt P22607, V555M); assay: as above; conditions: V555M mutant; read-out: FGFR3 (V555M) (Kd nM)
T4 construct: made in house; host or cells: E. coli (BL21-derived), T7 phage
T4 sequence (P22607 23-806 V555M): as the sequence (P22607 23-806) above, with V533M counted along it
In short: as §1

[5] = molecular target: T5, FGFR4 (Homo sapiens, UniProt P22455); assay: as above; conditions: read-out: FGFR4 (Kd nM)
T5 construct: made in house; host or cells: E. coli (BL21-derived), T7 phage
T5 sequence (P22455 22-802): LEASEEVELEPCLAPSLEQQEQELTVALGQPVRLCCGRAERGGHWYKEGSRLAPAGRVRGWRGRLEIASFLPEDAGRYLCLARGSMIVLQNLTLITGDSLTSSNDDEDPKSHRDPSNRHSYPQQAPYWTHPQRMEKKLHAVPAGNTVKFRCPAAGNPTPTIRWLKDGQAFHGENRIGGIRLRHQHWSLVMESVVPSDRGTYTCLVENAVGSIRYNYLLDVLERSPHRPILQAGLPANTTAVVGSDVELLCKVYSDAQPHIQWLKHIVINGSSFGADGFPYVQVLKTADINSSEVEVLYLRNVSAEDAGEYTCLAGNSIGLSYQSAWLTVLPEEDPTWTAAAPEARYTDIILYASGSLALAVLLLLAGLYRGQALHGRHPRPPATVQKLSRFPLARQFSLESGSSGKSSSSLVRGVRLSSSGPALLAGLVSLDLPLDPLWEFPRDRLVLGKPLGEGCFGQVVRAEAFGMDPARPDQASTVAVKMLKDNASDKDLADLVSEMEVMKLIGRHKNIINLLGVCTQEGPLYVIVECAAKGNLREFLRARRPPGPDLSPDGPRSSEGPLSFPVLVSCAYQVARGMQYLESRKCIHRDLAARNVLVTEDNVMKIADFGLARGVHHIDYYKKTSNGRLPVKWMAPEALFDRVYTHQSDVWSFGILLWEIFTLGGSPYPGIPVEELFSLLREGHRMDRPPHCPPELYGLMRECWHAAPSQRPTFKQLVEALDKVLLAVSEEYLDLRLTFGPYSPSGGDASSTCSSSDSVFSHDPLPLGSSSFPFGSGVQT
In short: as §1

[6] = test system: KATO-III cell line (FGFR2 amplification); assay: Cancer cell line cell viability assay (Cell Titer-Glo), 72 hr; type: cell-based; conditions: Homo sapiens, KATO III
In short: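 Intracellular ATP was measured by Cell Titer-Glo 2.0 luminescence after cells were incubated with compound dilutions (top 3 μM, 4-fold, 9 doses). Values were expressed relative to DMSO-treated cells and IC50 was calculated from a variable-slope dose-response curve.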

[7] = test system: KG-1 cell line (FGFR 1-fusion); assay: as above; type: cell-based; conditions: Homo sapiens, KG-1, KG-1 cell line (FGFR1-fusion)
In short: (§2)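 Cells seeded at 5,000-20,000/well, incubated overnight, then treated with a 9-dose, 4-fold dilution series from 3 μM in triplicate at 37° C, 5% CO2. Viability read by Cell Titer-Glo 2.0 luminescence as percent of DMSO control; IC50 from 4-parameter variable-slope sigmoidal fit.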

[8] = test system: RT112/84 cell line (FGFR3-fusion); assay: as above; type: cell-based; conditions: Homo sapiens, RT112/84, RT112/84 cell line (FGFR3-fusion)
In short: as §2

[9] = test system: HuH7 cell line (FGF19 amplification); assay: Cancer cell line cell viability assay (Cell Titer-Glo), 120 hr; type: cell-based; conditions: Homo sapiens, Huh-7
In short: as §2

[10] = test system: MDA-MB-453 cell line (FGFR4-Y367C); assay: as above; type: cell-based; conditions: Homo sapiens
In short: as §2

T1 sequence (P11362 22-822): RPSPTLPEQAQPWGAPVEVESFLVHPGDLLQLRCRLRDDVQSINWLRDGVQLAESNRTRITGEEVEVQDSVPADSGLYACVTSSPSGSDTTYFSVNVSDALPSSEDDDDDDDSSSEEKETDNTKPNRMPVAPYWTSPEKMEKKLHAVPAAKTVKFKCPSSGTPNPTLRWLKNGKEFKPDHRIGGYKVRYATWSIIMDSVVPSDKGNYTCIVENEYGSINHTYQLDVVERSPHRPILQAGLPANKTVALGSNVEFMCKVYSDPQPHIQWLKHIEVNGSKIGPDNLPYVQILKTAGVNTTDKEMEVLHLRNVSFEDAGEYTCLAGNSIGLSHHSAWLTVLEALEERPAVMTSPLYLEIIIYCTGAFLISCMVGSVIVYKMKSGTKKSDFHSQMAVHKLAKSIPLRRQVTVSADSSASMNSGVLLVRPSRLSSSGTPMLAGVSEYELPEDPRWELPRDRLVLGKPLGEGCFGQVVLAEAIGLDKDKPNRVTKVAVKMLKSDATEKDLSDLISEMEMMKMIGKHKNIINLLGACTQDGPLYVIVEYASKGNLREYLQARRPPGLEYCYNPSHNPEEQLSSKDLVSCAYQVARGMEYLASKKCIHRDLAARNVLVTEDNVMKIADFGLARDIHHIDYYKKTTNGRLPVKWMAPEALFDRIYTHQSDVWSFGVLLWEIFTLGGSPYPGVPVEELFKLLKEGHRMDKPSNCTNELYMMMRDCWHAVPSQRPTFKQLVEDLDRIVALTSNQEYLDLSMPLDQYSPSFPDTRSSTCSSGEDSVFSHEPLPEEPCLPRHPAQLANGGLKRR

Row | Kd [1] [nM] | Kd [2] [nM] | Kd [3] [nM] | Kd [4] [nM] | Kd [5] [nM] | IC50 [6] [nM] | IC50 [7] [nM] | IC50 [8] [nM] | IC50 [9] [nM] | IC50 [10] [nM] | SMILES
1 | 1 to 50 | 1 to 50 | 1 to 50 | 1 to 50 | 1 to 50 | 50 to 200 | 50 to 200 | 0.1 to 50 | 0.1 to 50 | 0.1 to 50 | C[C@@H](Oc1ccc2[nH]nc(-c3cnc(N4CC(C)(CS(C)(=O)=O)C4)c(F)c3)c2c1)c1c(Cl)cncc1Cl [Example 199, (R)-5-(1-(3,5-dichloropyridin-4-yl)ethoxy)-3-(5-fluoro-6-(3-methyl-3-((methyl-sulfonyl)meth-yl)azetidin-1-yl)pyridin-3-yl)-1H-indazole]
2 | 1 to 50 | 1 to 50 | 1 to 50 | 1 to 50 | 1 to 50 | 50 to 200 | 50 to 200 | 0.1 to 50 | 0.1 to 50 | 50 to 200 | CC[C@H](C)NC1(C)CN(c2ncc(-c3n[nH]c4ccc(O[C@H](C)c5c(Cl)cncc5Cl)cc34)cc2F)C1 [Example 141, 1-[5-[5-[(1R)-1-(3,5-dichloro-4-pyridyl)ethoxy]-1H-indazol-3-y1]-3-fluoro-2-pyridyl]-3-methyl-N-[(1S)-1-methylpropyl]azetidin-3-amine]
3 | 1 to 50 | 1 to 50 | 1 to 50 | 1 to 50 | 1 to 50 | 50 to 200 | 50 to 200 | 0.1 to 50 | 0.1 to 50 | 0.1 to 50 | C[C@@H](Oc1ccc2[nH]nc(-c3cnc(N4CC(C)(N(C)C)C4)c(F)c3)c2c1)c1c(Cl)cncc1Cl [Example 81, (R)-1-(5-(5-(1-(3,5-dichloropyridin-4-yl)ethoxy)-1H-indazol-3-yl)-3-fluoropyridin-2-yl)-N,N,3-trimethylazetidin-3-amine]
4 | 1 to 50 | 1 to 50 | 1 to 50 | 1 to 50 | 1 to 50 | 0.1 to 50 | 200 to 1000 | 0.1 to 50 | 0.1 to 50 | 0.1 to 50 | C[C@@H](Oc1ccc2[nH]nc(-c3cnc(N4CC(C)(N5CCP(C)(=O)CC5)C4)c(F)c3)c2c1)c1c(Cl)cncc1Cl [Example 198, (R)-1-(1-(5-(5-(1-(3,5-dichloropyridin-4-yl)ethoxy)-1H-indazol-3-yl)-3-fluoropyridin-2-yl)-3-methylazetidin-3-yl)-4-methyl-1,4-azaphosphinane 4-oxide]

Further lines, the compound ahead of its results:

Row | SMILES | Kd [1] [nM] | Kd [2] [nM] | Kd [3] [nM] | Kd [4] [nM] | Kd [5] [nM] | IC50 [6] [nM] | IC50 [7] [nM] | IC50 [8] [nM] | IC50 [9] [nM] | IC50 [10] [nM]
5 | CNC1(C)CN(c2ncc(-c3n[nH]c4cc(OC)c(O[C@H](C)c5c(Cl)cncc5Cl)cc34)cc2C#N)C1 [Example 9, 5-[5-[(1R)-1-(3,5-dichloro-4-pyridyl)ethoxy]-6-methoxy-1H-indazol-3-yl]-2-[3-methyl-3-(methylamino)azetidin-1-yl]pyridine-3-carbonitrile] | 1 to 50 | 1 to 50 | 1 to 50 | 1 to 50 | 1 to 50 | 50 to 200 | 0.1 to 50 | 0.1 to 50 | 0.1 to 50 | 0.1 to 50
6 | C=CCNC1(C)CN(c2ncc(-c3n[nH]c4ccc(O[C@H](C)c5c(Cl)cncc5Cl)cc34)cc2F)C1 [Example 148, (R)-N-ally1-1-(5-(5-(1-(3,5-dichloropyridin-4-yl)ethoxy)-1H-indazol-3-yl)-3-fluoropyridin-2-yl)-3-methylazetidin-3-amine] | 1 to 50 | 1 to 50 | 1 to 50 | 1 to 50 | 1 to 50 | 50 to 200 | 50 to 200 | 0.1 to 50 | 0.1 to 50 | 50 to 200
7 | C[C@@H]1[C@@H](CS(C)(=O)=O)CN1c1ccc(-c2n[nH]c3ccc(O[C@H](C)c4c(Cl)cncc4Cl)cc23)cn1 [Example 204, 5-((R)-1-(3,5-dichloropyridin-4-yl)ethoxy)-3-(6-((2R,3S)-2-methyl-3-((methyl-sulfonyl)meth-yl)azetidin-1-yl)pyridin-3-yl)-1H-indazole] | 1 to 50 | 1 to 50 | 1 to 50 | 1 to 50 | 1 to 50 | 0.1 to 50 | 50 to 200 | 0.1 to 50 | 0.1 to 50 | 50 to 200
